Experimental data reported in US20090258951A1, “Use of vanillyl alcohol for the treatment of Parkinson's disease” (Red Pharma & Biotech Research Corporation, priority 2008, published 2009).

What was measured:
[1] = system: rat with right-side substantia nigra destroyed by 6-OHDA (6-hydroxydopamine); assay: Amphetamine-induced rotation of rat with substantia nigra destroyed by 6-OHDA (animal gyroscope); type: in vivo
Protocol: (§1) After affixing rear head of a rat with a three-dimensional tightener and anaesthetizing the rat, then inject substantia nigra located at the right side of brain of the rat with 6-OHDA (6-hydroxydopamine) to destroy substantia nigra to make the rat produce tremor, rigidity, bradykinesia etc. Next, after the rat returns to and stays in room for 2 weeks, it is given amphetamine (5 mg/1000 g) via belly injection and then starts rotating round an animal gyroscope, wherein the number of rotations will be recorded (if the number of rotations exceeds 300 rotations per an hour, it means that the amphetamine has effected on the rat).
The substantia nigra of the brain of the rat is a tissue to release dopamine so that the injected amphetamine may accelerate the substantia nigra to release a large amount of dopamine. However, the substantia nigra located at the right side of brain of the rat has been destroyed by the 6-OHDA (6-hydroxydopamine) already unable to release dopamine any more, although the rat is injected with amphetamine for stimulation but the left side of body movement which is controlled by the right side of brain remains rigidity and bradykinesia. On the other hand, the substantia nigra located at the left side of brain of the rat is in normal condition without any injury so hyperkinesia occurs on the right side of body movement which is controlled by the left side of brain due to acceleration of amphetamine, that's why the rat keeps rotating for right turn (clockwise) and even uncontrollably.
(§2) With reference to FIG. 4, the rat is given with amphetamine about 1 mg per 1 kg of body weight thereof via belly injection and rotates round an animal gyroscope on 28th, 36th, 43rd and 52nd day respectively for right turn (clockwise) and left turn (counterclockwise), in which the number of rotations will be recorded.
as §2, with “to FIG. 5, the rat” for “to FIG. 4, the rat”, “injection and further provided with Vanillyl alcohol about 30 mg. Next, the rat rotates round” for “injection and rotates round”

[2] = system: rat with right-side substantia nigra destroyed by 6-OHDA (6-hydroxydopamine); type: in vivo
Protocol: as §1
The substantia nigra of the brain of the rat is a tissue to release dopamine so that the injected amphetamine may accelerate the substantia nigra to release a large amount of dopamine. […]
With reference to FIG. 7, the rat is given with L-DOPA about 50 mg per 1 kg of body weight thereof via belly injection and further provided with Vanillyl alcohol about 30 mg. […] Next, the rat rotates round an animal gyroscope on 28th, 36th, and 52nd day respectively for right turn (clockwise) and left turn (counterclockwise), in which the number of rotations will be recorded.

Compound	number of rotations for left turn (counterclockwise) ([1]; amphetamine about 1 mg per 1 kg via belly injection alone, days 28, 36, 43, 52, symptom since 36th day (FIG. 4))	behavioral asymmetry between right side and left side ([1]; amphetamine about 1 mg per 1 kg via belly injection alone, symptom since 36th day (FIG. 4))	movements of the rat ([2]; L-DOPA about 50 mg per 1 kg via belly injection plus Vanillyl alcohol about 30 mg, benserazide 30 mg per 1 kg 30 minutes before, days 28, 36, 52 (FIG. 7))	behavioral unbalance between right and left sides induced by L-DOPA ([2]; Vanillyl alcohol about 30 mg in combination with L-DOPA about 50 mg per 1 kg, benserazide pre-treatment (FIG. 7))	number of rotations for right turn (clockwise) ([1]; amphetamine about 1 mg per 1 kg via belly injection plus Vanillyl alcohol about 30 mg, days 28, 36, 43, 52, effect since 43rd day, 52nd day most apparent (FIG. 5))	behavioral asymmetry between right side and left side ([1]; amphetamine about 1 mg per 1 kg via belly injection plus Vanillyl alcohol about 30 mg, effect since 43rd day, 52nd day most apparent (FIG. 5))
CC(N)Cc1ccccc1 (stereo not drawn) [amphetamine, reference compound]	decreased gradually	increased apparently				
COc1cc(CO)ccc1O [Vanillyl alcohol, 4-hydroxy-3-methoxy-benzyl alcohol]			almost normal	inhibit	decreased gradually	decreased apparently
